Measured values as given in patent publication US20030176454A1, “N-coating heterocyclic compounds” (priority 2000, published 2003).

SMILES | melting point
c1ccc(Cc2nnc(Nc3cccc(-n4ccnc4)c3)c3ccccc23)cc1 [Example 36, (4-Benzyl-phthalazin-1-yl)-(3-imidazol-1-yl-phenyl)-amine] | 214 to 217 °C
c1cc(Nc2nccc3ccccc23)cc(-n2ccnc2)c1 [Example 44, [3-(Imidazol-1-yl)-phenyl]-(isoquinolin-1-yl)-amine] | 164 to 167 °C
c1ccc2c(N[C@H]3CC[C@H](Nc4nccc5ccccc45)CC3)nccc2c1 [Example 38, N,N′-Di(isoquinolin-1-yl)-transcyclohexane-1,4-diamine] | 278 to 280 °C
c1cc(Nc2nncc3ccccc23)cc(-n2ccnc2)c1 [Example 45, [3-(Imidazol-1-yl)-phenyl]-(phthalazin-1-yl)-amine] | 135 to 137 °C
c1ccc2c(NCCCCNc3nccc4ccccc34)nccc2c1 [Example 37, N,N′-Di(isoquinolin-1-yl)-butane-1,4-diamine] | 189 to 192 °C
Cn1cncc1-c1cccc(Nc2nccc3ccccc23)c1 [Example 35, [3-(1-methyl-imidazol-5-yl)-phenyl]-(isoquinolin-1-yl)-amine] | 208 to 209 °C
c1cc(Nc2ccc(-n3cccc3)cn2)cc(-n2ccnc2)c1 [Example 87, N-[3-(imidazol-1-yl)phenyl]-N-[5-(pyrrol-1-yl)pyridin-2-yl]-amine] | 152 to 156 °C
c1cc(CNc2nccc3ccccc23)cc(Nc2nnc3c4c(cccc24)-c2ccccc2-3)c1 [Example 40, (Indeno[1,2,3-de]phthalazin-3-yl)-[3-(isoquinolin-1-ylaminomethyl)-phenyl]-amine] | 149 to 152 °C
c1cc(Nc2nnc3c4c(cccc24)-c2ccccc2-3)cc(-n2ccnc2)c1 [Example 39, (Indeno[1,2,3-de]phthalazin-3-yl)-[3-(imidazol-1-yl)-phenyl]-amine] | 223 to 226 °C
I.N=C(Nc1cccc(Nc2nnc3c4c(cccc24)-c2ccccc2-3)c1)c1ccccc1 | 183 to 186 °C
Cn1cncc1-c1cccc(Nc2ccc3ccccc3n2)c1 [Example 34, [3-(1-methyl-imidazol-5-yl)-phenyl]-(quinolin-2-yl)-amine] | 60 to 65 °C
Cc1ncc(-c2cccc(Nc3ncnc4c3CCOc3ccccc3-4)c2)n1C [Example 86, N-[3-(1,2-dimethyl-1H-imidazol-5-yl)phenyl]-5,6-dihydro[1]benzoxepino[5,4-d]pyrimidin-4-amine] | 235 to 237 °C
CS(=O)(=O)O.N=C(Nc1cccc(Nc2noc3ccccc23)c1)c1ccccc1 [Example 25, N-[3-(benzo[d]isoxazol-3-ylamino)phenyl]benzamidine methanesulfonate] | 113 to 115 °C
c1ccc2c(c1)-c1cccc3c(NCCCCNc4nccc5ccccc45)nnc-2c13 [Example 46, N-(Indeno[1,2,3-de]phthalazin-3-yl)-N′-(isoquinolin-1-yl)-butane-1,4-diamine] | 95 to 105 °C
